Measured values: ChEMBL document CHEMBL5579889, “Structure-Based Design and Development of Phosphine Oxides as a Novel Chemotype for Antibiotics that Dysregulate Bacterial ClpP Proteases” (J Med Chem, 2024)
pEC50, pKd: −log10 of the molar value. In brackets after ≈: the same amount, converted by molar mass. Values belong to the molecule of their own block, whether it stands above or below them. Activity calls are given as the source filed them. The calls are words filed in the database; no cut-off is given here.

Columns and labels:
[1] = target: T1, ATP-dependent Clp protease proteolytic subunit (Staphylococcus aureus (strain NCTC 8325)) (UniProt Q2G036); assay: Activation of N-terminal His-tagged recombinant Staphylococcus aureus ClpP expressed in Escherichia coli SG1146(DE3) assessed as degradation of casein-FITC at 100 uM preincubated for 10 mins followed by casein addition measured for over 100 mins by fluorescence based assay; conditions: time > 110.0 min
T1 sequence (whole entry): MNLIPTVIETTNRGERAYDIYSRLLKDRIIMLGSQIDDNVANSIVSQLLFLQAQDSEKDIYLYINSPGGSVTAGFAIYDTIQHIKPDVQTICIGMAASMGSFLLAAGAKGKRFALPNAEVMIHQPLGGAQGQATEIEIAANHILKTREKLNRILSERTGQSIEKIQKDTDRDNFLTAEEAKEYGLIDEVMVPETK

Streptococcus pneumoniae = assay: Activation of recombinant Streptococcus pneumoniae ClpP extracted from Escherichia coli SG1146(DE3) assessed as degradation of casein-FITC at 100 uM preincubated for 10 mins followed by casein addition measured for over 100 mins by fluorescence based assay; conditions: time > 110.0 min
[2] = target: ATP-dependent Clp protease proteolytic subunit, mitochondrial (Homo sapiens) (UniProt Q16740); assay: Activation of N-terminal His-tagged recombinant human ClpP expressed in Escherichia coli SG1146(DE3) assessed as degradation of casein-FITC at 100 uM preincubated for 10 mins followed by casein addition measured for over 100 mins by fluorescence based assay; conditions: time > 110.0 min
[3] = target: T2, ATP-dependent Clp protease proteolytic subunit (Escherichia coli (strain K12), UniProt P0A6G7); assay: Activation of N-terminal His-tagged recombinant Escherichia coli ClpP expressed in Escherichia coli SG1146(DE3) assessed as degradation of casein-FITC preincubated for 10 mins followed by casein addition measured for over 100 mins by fluorescence based assay
[4] = target: T3, ATP-dependent Clp protease proteolytic subunit (Neisseria gonorrhoeae, UniProt Q5F914); assay: Activation of N-terminal His-tagged recombinant Neisseria gonorrhoeae ClpP expressed in Escherichia coli SG1146(DE3) assessed as degradation of casein-FITC preincubated for 10 mins followed by casein addition measured for over 100 mins by fluorescence based assay
[5] = target: T2, ATP-dependent Clp protease proteolytic subunit; assay: Binding affinity to His-tagged recombinant Escherichia coli ClpP extracted from Escherichia coli SG1146(DE3) using casein as substrate assessed as apparent dissociation constant incubated upto 120 mins by SDS-PAGE analysis; conditions: read-out: Kd(app)
[6] = target: T3, ATP-dependent Clp protease proteolytic subunit; assay: Binding affinity to His-tagged recombinant Neisseria gonorrhoeae ClpP extracted from Escherichia coli SG1146(DE3) using casein as substrate assessed as apparent dissociation constant incubated upto 120 mins by SDS-PAGE analysis; conditions: read-out: Kd(app)
[7] = Cytotoxicity against wild-type HEK293-T-REx cells assessed as cell viability upto 100 uM incubated for 3 days by AlamarBlue assay; assay type: toxicity, cell-based; conditions: human, 72 h, time 3 day
Neisseria gonorrhoeae [8] = assay: Antibacterial activity against Neisseria gonorrhoeae MS11 measured after 16 to 18 hrs by OD based assay; assay type: functional; conditions: time 16-18 hrs
Neisseria gonorrhoeae [9] = assay: Antibacterial activity against Neisseria gonorrhoeae FA19 measured after 16 to 18 hrs by OD based assay; assay type: functional; conditions: time 16-18 hrs
Neisseria gonorrhoeae [10] = assay: Antibacterial activity against Neisseria gonorrhoeae WHO G measured after 16 to 18 hrs by OD based assay; assay type: functional; conditions: time 16-18 hrs
Neisseria gonorrhoeae [11] = assay: Antibacterial activity against Neisseria gonorrhoeae WHO K measured after 16 to 18 hrs by OD based assay; assay type: functional; conditions: time 16-18 hrs
Neisseria gonorrhoeae [12] = assay: Antibacterial activity against Neisseria gonorrhoeae WHO L measured after 16 to 18 hrs by OD based assay; assay type: functional; conditions: time 16-18 hrs
Neisseria gonorrhoeae [13] = assay: Antibacterial activity against Neisseria gonorrhoeae WHO M measured after 16 to 18 hrs by OD based assay; assay type: functional; conditions: time 16-18 hrs
Neisseria gonorrhoeae [14] = assay: Antibacterial activity against Neisseria gonorrhoeae WHO N measured after 16 to 18 hrs by OD based assay; assay type: functional; conditions: time 16-18 hrs
Neisseria gonorrhoeae [15] = assay: Antibacterial activity against Neisseria gonorrhoeae WHO P measured after 16 to 18 hrs by OD based assay; assay type: functional; conditions: time 16-18 hrs
Neisseria gonorrhoeae [16] = assay: Antibacterial activity against Neisseria gonorrhoeae WHO V measured after 16 to 18 hrs by OD based assay; assay type: functional; conditions: time 16-18 hrs
Neisseria gonorrhoeae [17] = assay: Antibacterial activity against Neisseria gonorrhoeae WHO X measured after 16 to 18 hrs by OD based assay; assay type: functional; conditions: time 16-18 hrs
Neisseria gonorrhoeae [18] = assay: Antibacterial activity against Neisseria gonorrhoeae WHO Y measured after 16 to 18 hrs by OD based assay; assay type: functional; conditions: time 16-18 hrs
Neisseria gonorrhoeae [19] = assay: Antibacterial activity against Neisseria gonorrhoeae WHO Z measured after 16 to 18 hrs by OD based assay; assay type: functional; conditions: time 16-18 hrs
Neisseria meningitidis [20] = assay: Antibacterial activity against wild-type Neisseria meningitidis H44/76 measured after 16 to 18 hrs by OD based assay; assay type: functional; conditions: time 16-18 hrs
Neisseria meningitidis [21] = assay: Antibacterial activity against Neisseria meningitidis H44/76 harboring deltaclpP measured after 16 to 18 hrs by OD based assay; assay type: functional; conditions: time 16-18 hrs
Neisseria meningitidis [22] = assay: Antibacterial activity against Neisseria meningitidis EG329 measured after 16 to 18 hrs by OD based assay; assay type: functional; conditions: time 16-18 hrs
Neisseria meningitidis [23] = assay: Antibacterial activity against Neisseria meningitidis BZ169 measured after 16 to 18 hrs by OD based assay; assay type: functional; conditions: time 16-18 hrs
Neisseria meningitidis [24] = assay: Antibacterial activity against Neisseria meningitidis NGPB24 measured after 16 to 18 hrs by OD based assay; assay type: functional; conditions: time 16-18 hrs
Neisseria meningitidis [25] = assay: Antibacterial activity against Neisseria meningitidis AK50 measured after 16 to 18 hrs by OD based assay; assay type: functional; conditions: time 16-18 hrs
Neisseria meningitidis [26] = assay: Antibacterial activity against Neisseria meningitidis 88/03415 measured after 16 to 18 hrs by OD based assay; assay type: functional; conditions: time 16-18 hrs
Neisseria meningitidis [27] = assay: Antibacterial activity against Neisseria meningitidis BZ133 measured after 16 to 18 hrs by OD based assay; assay type: functional; conditions: time 16-18 hrs
Neisseria meningitidis [28] = assay: Antibacterial activity against Neisseria meningitidis SWZ107 measured after 16 to 18 hrs by OD based assay; assay type: functional; conditions: time 16-18 hrs
Neisseria meningitidis [29] = assay: Antibacterial activity against Neisseria meningitidis NGF26 measured after 16 to 18 hrs by OD based assay; assay type: functional; conditions: time 16-18 hrs
Neisseria meningitidis [30] = assay: Antibacterial activity against Neisseria meningitidis NG144/82 measured after 16 to 18 hrs by OD based assay; assay type: functional; conditions: time 16-18 hrs

T2 sequence (P0A6G7 whole entry): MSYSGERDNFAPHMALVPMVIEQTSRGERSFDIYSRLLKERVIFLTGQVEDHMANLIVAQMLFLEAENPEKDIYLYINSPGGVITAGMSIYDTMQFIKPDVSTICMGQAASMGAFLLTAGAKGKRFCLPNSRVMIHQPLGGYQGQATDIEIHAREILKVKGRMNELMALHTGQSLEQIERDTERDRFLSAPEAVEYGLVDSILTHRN
T3 sequence (Q5F914 whole entry): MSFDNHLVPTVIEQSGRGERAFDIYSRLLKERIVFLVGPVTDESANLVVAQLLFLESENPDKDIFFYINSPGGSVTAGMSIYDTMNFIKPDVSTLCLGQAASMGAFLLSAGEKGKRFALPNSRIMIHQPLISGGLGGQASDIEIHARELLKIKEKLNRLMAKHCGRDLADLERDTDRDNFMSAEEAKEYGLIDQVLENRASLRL
ATP-dependent Clp protease proteolytic subunit, mitochondrial (Homo sapiens), sequence (Q16740 whole entry): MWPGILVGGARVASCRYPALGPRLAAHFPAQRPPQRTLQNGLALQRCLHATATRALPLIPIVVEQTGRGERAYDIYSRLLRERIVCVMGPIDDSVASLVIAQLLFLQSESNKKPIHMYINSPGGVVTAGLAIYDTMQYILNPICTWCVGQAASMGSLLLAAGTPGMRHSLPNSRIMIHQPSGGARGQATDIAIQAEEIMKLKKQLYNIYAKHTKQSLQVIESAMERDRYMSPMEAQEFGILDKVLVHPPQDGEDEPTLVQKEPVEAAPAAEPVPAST

SMILES: CC(C)(C(=O)NCCSc1ccccc1C(F)(F)F)P(=O)(c1ccccn1)c1ccccn1
Activity [1]: inactive
Activity (Streptococcus pneumoniae): inactive
Activity [2]: inactive
pEC50 [3]: 5.64
pEC50 [4]: 5.29

SMILES: CC(C(=O)NCCSc1ccccc1C(F)(F)F)P(=O)(c1ccccn1)c1ccccn1 (stereo unspecified)
Activity [1]: inactive
Activity (Streptococcus pneumoniae): inactive
Activity [2]: inactive

SMILES: CC(C)(C(=O)NCCSc1ccccc1C(F)(F)F)P(=O)(c1ccc(C(F)(F)F)cn1)c1ccc(C(F)(F)F)cn1
Activity [1]: inactive
Activity (Streptococcus pneumoniae): inactive
Activity [2]: inactive
pEC50 [3]: 6.70
pEC50 [4]: 6.80
pKd [5]: 6.57
pKd [6]: 6.16
Activity [7]: Non-Toxic
MIC (Neisseria gonorrhoeae [8]): 1.6 µM (≈ 1.01 µg/mL)
MIC (Neisseria gonorrhoeae [9]): 1.6 µM (≈ 1.01 µg/mL)
MIC (Neisseria gonorrhoeae [10]): 1.6 µM (≈ 1.01 µg/mL)
MIC (Neisseria gonorrhoeae [11]): 1.6 µM (≈ 1.01 µg/mL)
MIC (Neisseria gonorrhoeae [12]): 1.6 µM (≈ 1.01 µg/mL)
MIC (Neisseria gonorrhoeae [13]): 1.6 µM (≈ 1.01 µg/mL)
MIC (Neisseria gonorrhoeae [14]): 1.6 µM (≈ 1.01 µg/mL)
MIC (Neisseria gonorrhoeae [15]): 1.6 µM (≈ 1.01 µg/mL)
MIC (Neisseria gonorrhoeae [16]): 3.1 µM (≈ 1.95 µg/mL)
MIC (Neisseria gonorrhoeae [17]): 1.6 µM (≈ 1.01 µg/mL)
MIC (Neisseria gonorrhoeae [18]): 3.1 µM (≈ 1.95 µg/mL)
MIC (Neisseria gonorrhoeae [19]): 2.4 µM (≈ 1.51 µg/mL)
MIC (Neisseria meningitidis [20]): 0.3 µM (≈ 0.189 µg/mL)
MIC (Neisseria meningitidis [21]): 3.1 µM (≈ 1.95 µg/mL)
MIC (Neisseria meningitidis [22]): 13.8 µM (≈ 8.69 µg/mL)
MIC (Neisseria meningitidis [23]): 18.8 µM (≈ 11.8 µg/mL)
MIC (Neisseria meningitidis [24]): 25 µM (≈ 15.7 µg/mL)
MIC (Neisseria meningitidis [25]): 50 µM (≈ 31.5 µg/mL)
MIC (Neisseria meningitidis [26]): 18.8 µM (≈ 11.8 µg/mL)
MIC (Neisseria meningitidis [27]): 25 µM (≈ 15.7 µg/mL)
MIC (Neisseria meningitidis [28]): 123 µM (≈ 77.4 µg/mL)
MIC (Neisseria meningitidis [29]): 18.8 µM (≈ 11.8 µg/mL)
MIC (Neisseria meningitidis [30]): 18.8 µM (≈ 11.8 µg/mL)

Next, values leading:

Activity [1]: inactive
Activity (Streptococcus pneumoniae): inactive
Activity [2]: inactive
pEC50 [3]: 5.69
pEC50 [4]: 5.56
SMILES: CC(C(=O)NCCSc1ccccc1C(F)(F)F)P(=O)(c1ccc(C(F)(F)F)cn1)c1ccc(C(F)(F)F)cn1 (stereo unspecified)

Activity [1]: inactive
Activity (Streptococcus pneumoniae): inactive
Activity [2]: inactive
pEC50 [3]: 5.14
pEC50 [4]: 5.47
SMILES: CC(C)(C(=O)NCCSc1ccccc1Br)P(=O)(c1ccc(C(F)(F)F)cc1)c1ccc(C(F)(F)F)cc1

pEC50 [3]: 5.35
pEC50 [4]: 5.48
SMILES: CC(C)(C(=O)NCCSc1ccccc1C(F)(F)F)P(=O)(c1ccc(C(F)(F)F)cc1)c1ccc(C(F)(F)F)cc1
